From DBAASP
≈ marks a conversion by molar mass, not a printed value.

Key:
Assay in all cases: ≥ marks a high value that may be exact or a test limit, other limits are often not marked, values filed in µg/mL are converted to µM
[1] = tested on: Staphylococcus epidermidis ATCC 12228
[2] = tested on: Escherichia coli ATCC 25922
Escherichia coli = tested on: Escherichia coli
[3] = tested on: Staphylococcus aureus ATCC 29213
Pseudomonas aeruginosa = tested on: Pseudomonas aeruginosa
Staphylococcus aureus = tested on: Staphylococcus aureus
[4] = tested on: Candida albicans ATCC 90028
Candida albicans = tested on: Candida albicans
[5] = tested on: Pseudomonas aeruginosa PAO1
Escherichia coli UB1005 = tested on: Escherichia coli UB1005
[6] = tested on: Staphylococcus aureus ATCC 25923

| Structure (SMILES) | MIC [2] [µM] | MIC (Escherichia coli) [µM] | MIC (Pseudomonas aeruginosa) [µM] | MIC (Staphylococcus aureus) [µM] | further results |
| --- | --- | --- | --- | --- | --- |
| CC(C)C[C@H](NC(=O)[C@H](CC(N)=O)NC(=O)[C@H](Cc1c[nH]c2ccccc12)NC(=O)[C@H](CCCN=C(N)N)NC(=O)[C@H](C)NC(=O)[C@H](CCCCN)NC(=O)[C@H](CCCCN)NC(=O)CNC(=O)[C@H](CC(C)C)NC(=O)[C@H](Cc1ccc(O)cc1)NC(=O)[C@H](Cc1ccc(O)cc1)NC(=O)CNC(=O)[C@H](Cc1c[nH]c2ccccc12)NC(=O)[C@H](CO)NC(=O)[C@H](CO)NC(=O)[C@H](Cc1c[nH]c2ccccc12)NC(=O)[C@H](CC(C)C)NC(=O)[C@H](CCCCN)NC(=O)[C@@H](NC(=O)[C@@H](NC(=O)[C@H](CC(C)C)NC(=O)[C@@H](N)CC(=O)O)[C@@H](C)O)[C@@H](C)O)C(=O)O [DLTTKLWSSWGYYLGKKARWNL] |  |  |  |  | MIC [1]: 25 µM (≈ 67.2 µg/mL) |
| CC[C@H](C)[C@H](NC(=O)CN)C(=O)NCC(=O)N[C@@H](CCCCN)C(=O)N[C@@H](Cc1ccccc1)C(=O)N[C@@H](CC(C)C)C(=O)N[C@@H](Cc1cnc[nH]1)C(=O)N[C@@H](CO)C(=O)N[C@@H](C)C(=O)N[C@@H](CCCCN)C(=O)N[C@@H](CCCCN)C(=O)N[C@@H](Cc1ccccc1)C(=O)NCC(=O)N[C@@H](CCCCN)C(=O)N[C@@H](C)C(=O)N[C@@H](Cc1c[nH]c2ccccc12)C(=O)N[C@H](C(=O)NCC(=O)N[C@@H](CCC(=O)O)C(=O)N[C@H](C(=O)N[C@@H](CCSC)C(=O)N[C@@H](CC(N)=O)C(=O)N[C@@H](CO)C(N)=O)[C@@H](C)CC)C(C)C [GIGKFLHSAKKFGKAWVGEIMNS] |  | 40 (≈ 100 µg/mL) | 80 (≈ 200 µg/mL) | > 80 |  |
| CC[C@H](C)[C@H](NC(=O)CN)C(=O)NCC(=O)N[C@@H](CCCCN)C(=O)N[C@@H](Cc1ccccc1)C(=O)N[C@@H](CC(C)C)C(=O)N[C@@H](Cc1cnc[nH]1)C(=O)N[C@H](C(=O)N[C@@H](CC(C)C)C(=O)N[C@@H](CCCCN)C(=O)N[C@H](C(=O)N[C@@H](Cc1ccccc1)C(=O)NCC(=O)N[C@@H](CCCCN)C(=O)N[C@@H](CCCCN)C(=O)N[C@@H](Cc1c[nH]c2ccccc12)C(=O)N[C@H](C(=O)NCC(=O)N[C@@H](CCC(=O)O)C(=O)N[C@H](C(=O)N[C@@H](CCSC)C(=O)N[C@@H](CC(N)=O)C(=O)N[C@@H](CO)C(N)=O)[C@@H](C)CC)C(C)C)[C@@H](C)O)[C@@H](C)O [GIGKFLHTLKTFGKKWVGEIMNS] |  | 13 (≈ 33.7 µg/mL) | 13 (≈ 33.7 µg/mL) | 13 (≈ 33.7 µg/mL) |  |
| CC[C@H](C)[C@H](NC(=O)[C@H](CCCCN)NC(=O)[C@H](CC(=O)O)NC(=O)[C@H](CC(C)C)NC(=O)[C@H](CC(C)C)NC(=O)CNC(=O)[C@@H](NC(=O)[C@H](C)NC(=O)[C@H](CC(C)C)NC(=O)[C@H](CC(N)=O)NC(=O)[C@H](CCCCN)NC(=O)[C@H](C)NC(=O)[C@@H](NC(=O)[C@H](CC(N)=O)NC(=O)[C@H](CCCCN)NC(=O)[C@@H](NC(=O)[C@@H](NC(=O)[C@H](CC(=O)O)NC(=O)[C@H](CC(C)C)NC(=O)[C@H](CC(C)C)NC(=O)CN)[C@@H](C)O)[C@@H](C)CC)[C@@H](C)O)C(C)C)C(=O)N[C@@H](CCCCN)C(=O)N[C@H]1CSSC[C@@H](C(=O)O)NC(=O)CNC(=O)[C@H]([C@@H](C)O)NC(=O)[C@H](CCSC)NC(=O)[C@H](CCCCN)NC1=O [GLLDTIKNTAKNLAVGLLDKIKCKMTGC] | 3 (≈ 8.88 µg/mL) |  |  |  | MIC [4]: ≥ 150 µM |
| CC(C)C[C@H](NC(=O)[C@H](C)NC(=O)[C@H](CCCCN)NC(=O)[C@H](Cc1c[nH]c2ccccc12)NC(=O)[C@H](CC(C)C)NC(=O)[C@H](CCCCN)NC(=O)[C@H](C)NC(=O)[C@H](CC(C)C)NC(=O)[C@H](C)NC(=O)[C@H](CCCCN)NC(=O)[C@H](C)NC(=O)[C@H](CC(C)C)NC(=O)[C@H](C)NC(=O)[C@@H](N)CCCCN)C(=O)N[C@@H](C)C(=O)N[C@@H](CCCCN)C(=O)N[C@@H](C)C(=O)N[C@@H](C)C(N)=O [KALAKALAKLWKALAKAA] |  | 6 (≈ 11.2 µg/mL) | 24 (≈ 44.8 µg/mL) | 1.5 (≈ 2.8 µg/mL) |  |
| CC(C)C[C@H](NC(=O)[C@H](C)NC(=O)[C@H](CC(C)C)NC(=O)[C@H](CCCCN)NC(=O)[C@H](CC(C)C)NC(=O)[C@H](C)NC(=O)[C@H](CC(C)C)NC(=O)[C@@H](N)CCCCN)C(=O)N[C@@H](CCCCN)C(=O)N[C@@H](C)C(=O)N[C@@H](Cc1c[nH]c2ccccc12)C(=O)N[C@@H](CCCCN)C(=O)N[C@@H](C)C(=O)N[C@@H](C)C(=O)N[C@@H](CC(C)C)C(=O)N[C@@H](CCCCN)C(=O)N[C@@H](CC(C)C)C(=O)N[C@@H](C)C(N)=O [KLALKLALKAWKAALKLA] |  | 3.68 (≈ 7.17 µg/mL) | 14.7 (≈ 28.7 µg/mL) | 1.84 (≈ 3.58 µg/mL) |  |
| CC[C@H](C)[C@H](NC(=O)[C@H](CCCN=C(N)N)NC(=O)[C@@H](NC(=O)[C@H](CCCN=C(N)N)NC(=O)[C@H](Cc1c[nH]c2ccccc12)NC(=O)[C@H](Cc1ccccc1)NC(=O)[C@H](Cc1ccccc1)NC(=O)[C@@H]1CCCN1)[C@@H](C)CC)C(=O)N[C@@H](CCCN=C(N)N)C(=O)N[C@@H](CCCN=C(N)N)C(N)=O [PFFWRIRIRR] | 5.53 (≈ 7.99 µg/mL) |  |  |  | MIC [5]: 5.53 µM (≈ 7.99 µg/mL) |
| CC[C@H](C)[C@H](NC(=O)[C@H](Cc1cnc[nH]1)NC(=O)[C@H](CCCN=C(N)N)NC(=O)[C@@H]1CCCN1C(=O)[C@@H]1CCCN1C(=O)[C@H](CCCN=C(N)N)NC(=O)[C@@H]1CCCN1C(=O)[C@H](CCCN=C(N)N)NC(=O)[C@@H]1CCCN1C(=O)[C@H](CC(C)C)NC(=O)[C@H](Cc1ccc(O)cc1)NC(=O)[C@@H]1CCCN1C(=O)[C@@H]1CCCN1C(=O)[C@H](CCCCN)NC(=O)[C@H](CC(=O)O)NC(=O)[C@@H](N)C(C)C)C(=O)N[C@@H](Cc1ccc(O)cc1)C(=O)N[C@@H](CC(N)=O)C(=O)N[C@@H](CCCN=C(N)N)C(N)=O [VDKPPYLPRPRPPRHIYNR] |  |  |  |  | MIC (Escherichia coli UB1005): 0.548 µM (≈ 1.3 µg/mL); MIC [5]: 27 µM (≈ 64 µg/mL); MIC [6]: > 54 µM |

Second part, led by results:

| MIC [2] [µM] | MIC (Escherichia coli) [µM] | MIC (Pseudomonas aeruginosa) [µM] | MIC (Staphylococcus aureus) [µM] | Structure (SMILES) | further results |
| --- | --- | --- | --- | --- | --- |
| 10 (≈ 28.3 µg/mL) | 20 (≈ 56.5 µg/mL) |  |  | CC[C@H](C)[C@H](NC(=O)CN)C(=O)NCC(=O)N[C@@H](C)C(=O)N[C@H](C(=O)N[C@@H](CC(C)C)C(=O)N[C@@H](CCCCN)C(=O)N[C@H](C(=O)N[C@@H](CC(C)C)C(=O)N[C@H](C(=O)N[C@H](C(=O)NCC(=O)N[C@@H](CC(C)C)C(=O)N1CCC[C@H]1C(=O)N[C@@H](C)C(=O)N[C@@H](CS)C(=O)N[C@H](C(=O)N[C@@H](CO)C(=O)N[C@@H](Cc1c[nH]c2ccccc12)C(=O)N[C@@H](CS)C(=O)N[C@@H](CCCCN)C(=O)N[C@@H](CCCN=C(N)N)C(=O)N[C@@H](CCCCN)C(=O)N[C@@H](CCCN=C(N)N)C(=O)N[C@@H](CCC(N)=O)C(=O)N[C@@H](CCC(N)=O)C(=O)O)[C@@H](C)CC)[C@@H](C)O)[C@@H](C)O)C(C)C)C(C)C [GIGAVLKVLTTGLPACISWCKRKRQQ] | MIC [3]: > 40 µM |
| > 80 |  |  |  | CC[C@H](C)[C@H](NC(=O)CN)C(=O)N[C@@H](CCCCN)C(=O)N[C@@H](CCCCN)C(=O)N[C@@H](Cc1c[nH]c2ccccc12)C(=O)N[C@@H](CC(C)C)C(=O)N[C@@H](Cc1cnc[nH]1)C(=O)N[C@@H](CO)C(=O)N1CCC[C@H]1C(=O)N[C@@H](CCCCN)C(=O)N[C@@H](CCCCN)C(=O)N1CCC[C@H]1C(=O)NCC(=O)N[C@@H](CCCCN)C(=O)N[C@@H](CCCCN)C(=O)N[C@@H](Cc1ccccc1)C(=O)N[C@H](C(=O)N[C@@H](CCCCN)C(=O)N[C@@H](CCCCN)C(=O)N[C@H](C(=O)N[C@@H](CCSC)C(=O)N[C@@H](CC(N)=O)C(=O)N[C@@H](CO)C(N)=O)[C@@H](C)CC)C(C)C [GIKKWLHSPKKPGKKFVKKIMNS] | MIC [1]: 10 µM (≈ 26.8 µg/mL) |
|  | > 400 |  | 19.3 (≈ 31.2 µg/mL) | CC[C@H](C)[C@H](N)C(=O)N[C@@H](CC(C)C)C(=O)NCC(=O)N[C@@H](C)C(=O)N[C@H](C(=O)N[C@H](C(=O)N1CCC[C@H]1C(=O)N[C@@H](CC(C)C)C(=O)N[C@H](C(=O)N[C@@H](CO)C(=O)NCC(=O)N[C@@H](CC(C)C)C(=O)N[C@@H](CC(C)C)C(=O)N[C@@H](CO)C(=O)N[C@@H](Cc1cnc[nH]1)C(=O)N[C@@H](CC(C)C)C(N)=O)C(C)C)[C@@H](C)CC)[C@@H](C)CC [ILGAIIPLVSGLLSHL] | MIC (Candida albicans): 310 µM (≈ 501 µg/mL) |
|  |  | > 20 |  | CC[C@H](C)[C@H](NC(=O)[C@H](Cc1ccccc1)NC(=O)[C@H](CO)NC(=O)[C@H](CCCCN)NC(=O)[C@H](Cc1c[nH]c2ccccc12)NC(=O)[C@@H](N)CCCCN)C(=O)N[C@@H](CCCCN)C(=O)N[C@@H](CCCCN)C(=O)N[C@@H](CCCN=C(N)N)C(=O)N[C@H](C(=O)N[C@@H](CO)C(=O)N[C@@H](CCCCN)C(=O)N[C@@H](Cc1ccccc1)C(=O)N[C@@H](CC(C)C)C(=O)N[C@@H](Cc1cnc[nH]1)C(=O)N[C@@H](CO)C(=O)N[C@@H](C)C(=O)N[C@@H](CCCCN)C(=O)N[C@@H](CCCCN)C(=O)N[C@@H](Cc1ccccc1)C(N)=O)[C@@H](C)O [KWKSFIKKRTSKFLHSAKKF] |  |
|  | 10 (≈ 26.7 µg/mL) |  | 20 (≈ 53.3 µg/mL) | CC[C@H](C)[C@H](NC(=O)[C@H](CCCCN)NC(=O)[C@H](CS)NC(=O)[C@H](C)NC(=O)[C@@H](NC(=O)[C@H](Cc1ccccc1)NC(=O)CNC(=O)[C@H](CC(C)C)NC(=O)CNC(=O)[C@@H](NC(=O)[C@H](CCCCN)NC(=O)CNC(=O)[C@H](CC(C)C)NC(=O)[C@H](CC(N)=O)NC(=O)[C@H](CCCCN)NC(=O)[C@H](CC(C)C)NC(=O)[C@@H](NC(=O)[C@H](CO)NC(=O)[C@H](CC(C)C)NC(=O)[C@H](CCSC)NC(=O)[C@@H](N)CO)C(C)C)C(C)C)C(C)C)C(=O)N[C@@H](CCCCN)C(=O)N[C@@H](CCCCN)C(=O)N[C@@H](CCC(N)=O)C(=O)N[C@@H](CS)C(=O)O [SMLSVLKNLGKVGLGFVACKIKKQC] | MIC (Candida albicans): 20 µM (≈ 53.3 µg/mL) |
